# In patent US11572590B2, “Methods for evaluating tumor cell spheroids using 3D microfluidic cell culture device” (Dana-Farber Cancer Institute, Inc., priority 2017, dated 2023):
# Like-named read-outs stand apart in the source and are kept apart here.
# How the values were obtained:
# Assay in all cases: SelectScreen Kinase Profiling, single point inhibition and IC50 for off-target kinases
# Assay type in all cases: biochemical
# [1] = molecular target: T1, off-target kinases (Homo sapiens, UniProt Q9BXA7); conditions: STK22D (TSSK1), ATP Km app, ZLYTE
# T1 sequence (Q9BXA7 1-367): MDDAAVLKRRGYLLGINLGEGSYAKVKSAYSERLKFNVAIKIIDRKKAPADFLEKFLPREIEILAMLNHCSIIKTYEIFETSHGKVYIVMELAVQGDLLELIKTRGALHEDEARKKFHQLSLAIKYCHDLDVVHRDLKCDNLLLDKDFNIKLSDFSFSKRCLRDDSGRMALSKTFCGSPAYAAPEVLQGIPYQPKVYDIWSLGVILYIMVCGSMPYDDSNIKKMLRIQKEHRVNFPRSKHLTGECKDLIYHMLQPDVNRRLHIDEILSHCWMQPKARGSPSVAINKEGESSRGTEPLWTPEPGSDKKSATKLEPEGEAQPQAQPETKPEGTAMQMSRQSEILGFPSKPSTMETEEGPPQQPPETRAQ
# [2] = molecular target: off-target kinases (Homo sapiens, UniProt Q96RR4); conditions: CAMKK2 (CaMKK beta), LanthaScreen Binding
# Sequence of off-target kinases (Homo sapiens, UniProt Q96RR4) (Q96RR4 whole entry): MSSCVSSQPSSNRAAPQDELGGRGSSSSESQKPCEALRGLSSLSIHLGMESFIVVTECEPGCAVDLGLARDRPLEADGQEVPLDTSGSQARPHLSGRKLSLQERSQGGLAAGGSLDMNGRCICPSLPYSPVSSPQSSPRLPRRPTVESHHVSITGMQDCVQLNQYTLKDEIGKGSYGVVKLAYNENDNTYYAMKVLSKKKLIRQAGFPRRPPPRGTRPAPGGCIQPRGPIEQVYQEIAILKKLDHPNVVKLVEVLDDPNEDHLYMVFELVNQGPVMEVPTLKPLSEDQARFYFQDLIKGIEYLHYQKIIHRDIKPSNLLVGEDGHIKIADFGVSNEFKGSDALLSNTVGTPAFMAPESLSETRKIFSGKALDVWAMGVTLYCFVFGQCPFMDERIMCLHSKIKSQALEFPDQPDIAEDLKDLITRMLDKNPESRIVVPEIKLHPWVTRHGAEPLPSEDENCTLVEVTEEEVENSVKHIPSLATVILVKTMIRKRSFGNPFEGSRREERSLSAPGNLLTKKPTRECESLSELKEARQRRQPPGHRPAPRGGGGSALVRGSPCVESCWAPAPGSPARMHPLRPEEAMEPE
# [3] = molecular target: off-target kinases (Homo sapiens, UniProt Q9UM73); conditions: ALK, ZLYTE, ATP Km app
# Sequence of off-target kinases (Homo sapiens, UniProt Q9UM73) (Q9UM73 19-1620): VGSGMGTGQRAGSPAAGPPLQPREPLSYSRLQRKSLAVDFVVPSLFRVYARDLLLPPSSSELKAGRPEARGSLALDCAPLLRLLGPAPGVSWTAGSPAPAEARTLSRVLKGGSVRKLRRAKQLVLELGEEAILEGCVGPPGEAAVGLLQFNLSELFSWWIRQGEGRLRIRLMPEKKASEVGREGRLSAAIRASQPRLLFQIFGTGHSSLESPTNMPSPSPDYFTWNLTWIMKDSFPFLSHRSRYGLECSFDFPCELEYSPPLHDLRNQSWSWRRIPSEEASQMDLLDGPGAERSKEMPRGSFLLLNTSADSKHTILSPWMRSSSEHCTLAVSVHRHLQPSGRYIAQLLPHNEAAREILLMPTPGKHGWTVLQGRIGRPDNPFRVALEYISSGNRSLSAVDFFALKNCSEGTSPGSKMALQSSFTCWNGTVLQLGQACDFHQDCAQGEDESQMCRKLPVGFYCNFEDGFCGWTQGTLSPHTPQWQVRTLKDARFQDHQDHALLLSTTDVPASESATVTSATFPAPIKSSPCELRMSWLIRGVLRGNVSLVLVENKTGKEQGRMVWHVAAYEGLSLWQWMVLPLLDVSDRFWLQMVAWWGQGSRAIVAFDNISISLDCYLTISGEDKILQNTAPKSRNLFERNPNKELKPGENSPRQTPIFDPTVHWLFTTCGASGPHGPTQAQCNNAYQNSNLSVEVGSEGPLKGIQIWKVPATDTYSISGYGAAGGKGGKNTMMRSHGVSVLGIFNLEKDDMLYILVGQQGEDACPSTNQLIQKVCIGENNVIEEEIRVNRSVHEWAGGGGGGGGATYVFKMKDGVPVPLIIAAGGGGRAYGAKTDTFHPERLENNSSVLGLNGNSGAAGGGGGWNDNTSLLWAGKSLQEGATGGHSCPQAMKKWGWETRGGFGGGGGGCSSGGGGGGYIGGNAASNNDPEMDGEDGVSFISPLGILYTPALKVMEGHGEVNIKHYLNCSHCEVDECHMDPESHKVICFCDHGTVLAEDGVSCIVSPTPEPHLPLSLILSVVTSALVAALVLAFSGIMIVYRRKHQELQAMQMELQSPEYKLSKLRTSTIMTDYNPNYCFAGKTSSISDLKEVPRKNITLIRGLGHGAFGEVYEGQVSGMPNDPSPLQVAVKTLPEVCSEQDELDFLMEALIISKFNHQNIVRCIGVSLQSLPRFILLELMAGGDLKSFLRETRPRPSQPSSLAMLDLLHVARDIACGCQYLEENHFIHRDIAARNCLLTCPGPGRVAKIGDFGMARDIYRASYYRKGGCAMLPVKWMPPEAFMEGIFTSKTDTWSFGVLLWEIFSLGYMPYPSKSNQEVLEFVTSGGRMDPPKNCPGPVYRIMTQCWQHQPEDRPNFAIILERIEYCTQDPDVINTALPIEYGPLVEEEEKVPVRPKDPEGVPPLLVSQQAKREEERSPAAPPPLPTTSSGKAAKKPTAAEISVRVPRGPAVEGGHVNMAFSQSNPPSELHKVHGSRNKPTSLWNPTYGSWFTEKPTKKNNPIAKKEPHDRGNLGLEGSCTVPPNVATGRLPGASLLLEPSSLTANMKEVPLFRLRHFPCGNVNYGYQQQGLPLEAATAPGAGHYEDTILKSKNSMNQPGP
# [4] = molecular target: off-target kinases (Homo sapiens, UniProt Q02763); conditions: TEK (Tie2), ZLYTE, ATP Km app
# [5] = molecular target: off-target kinases (Homo sapiens, UniProt P49760); conditions: CLK2, ZLYTE, ATP Km app
# Sequence of off-target kinases (Homo sapiens, UniProt P49760) (P49760 whole entry): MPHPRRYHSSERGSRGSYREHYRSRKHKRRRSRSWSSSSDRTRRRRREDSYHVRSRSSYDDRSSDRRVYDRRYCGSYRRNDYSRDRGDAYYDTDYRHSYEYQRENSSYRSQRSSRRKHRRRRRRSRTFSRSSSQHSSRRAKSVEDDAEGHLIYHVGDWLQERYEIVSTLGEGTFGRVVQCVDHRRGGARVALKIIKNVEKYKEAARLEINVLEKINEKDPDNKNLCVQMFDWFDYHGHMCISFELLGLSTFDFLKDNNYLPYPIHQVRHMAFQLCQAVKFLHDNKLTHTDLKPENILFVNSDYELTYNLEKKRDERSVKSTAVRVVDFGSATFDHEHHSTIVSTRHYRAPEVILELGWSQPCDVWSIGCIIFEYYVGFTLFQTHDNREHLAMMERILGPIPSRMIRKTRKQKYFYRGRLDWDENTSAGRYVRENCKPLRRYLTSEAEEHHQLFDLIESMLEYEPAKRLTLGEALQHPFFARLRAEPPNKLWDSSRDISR
# [6] = molecular target: off-target kinases (Homo sapiens, UniProt Q9Y4K4); conditions: MAP4K5 (KHS1), ZLYTE, ATP Km app
# Sequence of off-target kinases (Homo sapiens, UniProt Q9Y4K4) (Q9Y4K4 whole entry): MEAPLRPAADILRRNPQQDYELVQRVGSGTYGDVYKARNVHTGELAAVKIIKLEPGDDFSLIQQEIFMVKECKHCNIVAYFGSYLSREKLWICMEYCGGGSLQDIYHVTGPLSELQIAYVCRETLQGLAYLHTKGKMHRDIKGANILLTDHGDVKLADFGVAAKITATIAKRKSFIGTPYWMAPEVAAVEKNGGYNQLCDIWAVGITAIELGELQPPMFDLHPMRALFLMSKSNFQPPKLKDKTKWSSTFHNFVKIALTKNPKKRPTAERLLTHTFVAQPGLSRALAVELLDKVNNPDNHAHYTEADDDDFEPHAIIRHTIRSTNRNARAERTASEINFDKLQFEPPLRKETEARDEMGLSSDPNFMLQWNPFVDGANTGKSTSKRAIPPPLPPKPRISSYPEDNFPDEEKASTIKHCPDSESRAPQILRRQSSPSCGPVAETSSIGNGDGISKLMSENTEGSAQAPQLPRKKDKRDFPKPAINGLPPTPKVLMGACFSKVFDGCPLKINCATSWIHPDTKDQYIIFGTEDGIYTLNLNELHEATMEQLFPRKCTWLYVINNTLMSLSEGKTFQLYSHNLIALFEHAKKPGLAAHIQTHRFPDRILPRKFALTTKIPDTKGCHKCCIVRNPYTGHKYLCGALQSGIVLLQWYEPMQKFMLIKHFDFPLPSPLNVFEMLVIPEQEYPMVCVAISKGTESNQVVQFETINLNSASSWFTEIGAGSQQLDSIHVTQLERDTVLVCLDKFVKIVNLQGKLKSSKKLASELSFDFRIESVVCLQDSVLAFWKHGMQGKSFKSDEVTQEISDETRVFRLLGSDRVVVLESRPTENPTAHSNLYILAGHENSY
# [7] = molecular target: off-target kinases (Homo sapiens, UniProt P51451); conditions: BLK, ATP Km app, ZLYTE
# Sequence of off-target kinases (Homo sapiens, UniProt P51451) (P51451 whole entry): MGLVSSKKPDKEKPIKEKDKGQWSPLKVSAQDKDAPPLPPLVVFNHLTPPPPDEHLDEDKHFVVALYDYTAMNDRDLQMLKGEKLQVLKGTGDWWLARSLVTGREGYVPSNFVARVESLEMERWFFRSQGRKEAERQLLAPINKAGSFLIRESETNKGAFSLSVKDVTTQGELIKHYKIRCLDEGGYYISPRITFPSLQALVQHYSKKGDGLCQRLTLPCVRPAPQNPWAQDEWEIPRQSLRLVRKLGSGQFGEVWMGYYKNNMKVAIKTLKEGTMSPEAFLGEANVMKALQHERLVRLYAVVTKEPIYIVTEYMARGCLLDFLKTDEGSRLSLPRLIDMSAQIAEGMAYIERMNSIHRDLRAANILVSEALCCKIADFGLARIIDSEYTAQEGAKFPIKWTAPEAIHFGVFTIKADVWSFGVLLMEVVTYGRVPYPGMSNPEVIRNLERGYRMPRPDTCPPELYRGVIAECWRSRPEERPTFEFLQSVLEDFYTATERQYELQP
# [8] = molecular target: off-target kinases (Homo sapiens, UniProt P57059); conditions: SIK1, LanthaScreen Binding
# Sequence of off-target kinases (Homo sapiens, UniProt P57059) (P57059 whole entry): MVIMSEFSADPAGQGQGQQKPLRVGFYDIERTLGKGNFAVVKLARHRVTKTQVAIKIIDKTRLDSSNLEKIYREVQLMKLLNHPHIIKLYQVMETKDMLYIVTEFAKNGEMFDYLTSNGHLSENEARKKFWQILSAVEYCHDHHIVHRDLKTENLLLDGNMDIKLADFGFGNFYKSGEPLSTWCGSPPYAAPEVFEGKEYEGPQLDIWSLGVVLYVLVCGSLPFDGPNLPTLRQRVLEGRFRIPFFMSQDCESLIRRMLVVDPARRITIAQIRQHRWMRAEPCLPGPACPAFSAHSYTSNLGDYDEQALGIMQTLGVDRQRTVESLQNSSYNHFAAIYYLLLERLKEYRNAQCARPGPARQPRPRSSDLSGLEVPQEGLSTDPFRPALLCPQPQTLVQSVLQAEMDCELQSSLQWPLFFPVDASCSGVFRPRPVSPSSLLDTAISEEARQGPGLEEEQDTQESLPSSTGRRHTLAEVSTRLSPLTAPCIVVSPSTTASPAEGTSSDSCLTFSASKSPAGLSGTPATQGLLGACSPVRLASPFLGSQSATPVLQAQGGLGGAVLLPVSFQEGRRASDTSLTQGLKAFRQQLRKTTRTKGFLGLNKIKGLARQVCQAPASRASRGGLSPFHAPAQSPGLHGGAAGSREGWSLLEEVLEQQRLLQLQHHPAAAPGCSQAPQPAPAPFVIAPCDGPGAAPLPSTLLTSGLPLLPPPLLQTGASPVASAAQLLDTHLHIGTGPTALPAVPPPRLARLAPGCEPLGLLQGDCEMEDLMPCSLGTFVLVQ
# [9] = molecular target: T2, off-target kinases (Homo sapiens, UniProt Q8TD08); conditions: MAPK15 (ERK7), LanthaScreen Binding
# T2 sequence (Q8TD08 1-544): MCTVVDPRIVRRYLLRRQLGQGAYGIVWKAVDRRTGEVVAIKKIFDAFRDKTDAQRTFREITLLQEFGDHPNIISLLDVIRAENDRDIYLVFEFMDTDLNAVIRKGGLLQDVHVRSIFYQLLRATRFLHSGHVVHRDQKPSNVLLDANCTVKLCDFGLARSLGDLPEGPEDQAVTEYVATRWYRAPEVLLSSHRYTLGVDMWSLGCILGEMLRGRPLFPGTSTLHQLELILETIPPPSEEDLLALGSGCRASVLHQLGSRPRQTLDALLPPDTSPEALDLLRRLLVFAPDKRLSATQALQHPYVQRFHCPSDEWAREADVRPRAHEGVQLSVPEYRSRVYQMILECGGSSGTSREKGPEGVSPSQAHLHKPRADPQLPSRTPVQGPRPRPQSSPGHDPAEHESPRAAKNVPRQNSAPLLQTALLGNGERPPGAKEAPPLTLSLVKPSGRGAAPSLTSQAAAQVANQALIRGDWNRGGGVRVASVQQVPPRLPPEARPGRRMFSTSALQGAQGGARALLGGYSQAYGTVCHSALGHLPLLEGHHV
smiles,measurement,setting,value
"N#Cc1cc(-c2ncnc(Nc3ccc(N4CCN(C5COC5)CC4)cc3)n2)ccc1OC1CCOCC1 [Compound 1, 5-(4-((4-(4-(oxetan-3-yl)piperazin-1-yl)phenyl)amino)-1,3,5-triazin-2-yl)-2-((tetrahydro-2H-pyran-4-yl)oxy)benzonitrile]",inhibition,[1]; read-out: % Inhibition 1,99%
same,inhibition,[1]; read-out: % Inhibition 2,95%
same,inhibition,[1]; read-out: % Inhibition Avg,97%
same,inhibition,[2]; read-out: % Inhibition 1,7%
same,inhibition,[2]; read-out: % Inhibition 2,9%
same,inhibition,[2]; read-out: % Inhibition Avg,8%
same,inhibition,[3]; read-out: % Inhibition 1,4%
same,inhibition,[3]; read-out: % Inhibition 2,-2%
same,inhibition,[3]; read-out: % Inhibition Avg,1%
same,inhibition,[4]; read-out: % Inhibition 1,11%
same,inhibition,[4]; read-out: % Inhibition 2,17%
same,inhibition,[4]; read-out: % Inhibition Avg,14%
same,inhibition,[5]; read-out: % Inhibition 1,5%
same,inhibition,[5]; read-out: % Inhibition 2,9%
same,inhibition,[5]; read-out: % Inhibition Avg,7%
same,inhibition,[6]; read-out: % Inhibition 1,11%
same,inhibition,[6]; read-out: % Inhibition 2,12%
same,inhibition,[6]; read-out: % Inhibition Avg,12%
same,inhibition,[7]; read-out: % Inhibition 1,41%
same,inhibition,[7]; read-out: % Inhibition 2,42%
same,inhibition,[7]; read-out: % Inhibition Avg,42%
same,inhibition,[8]; read-out: % Inhibition 1,57%
same,inhibition,[8]; read-out: % Inhibition 2,54%
same,inhibition,[8]; read-out: % Inhibition Avg,56%
same,inhibition,[9]; read-out: % Inhibition 1,100%
same,inhibition,[9]; read-out: % Inhibition 2,100%
same,inhibition,[9]; read-out: % Inhibition Avg,100%
